This is an account of results in patent publication US20250082611A1, “DOSING REGIMEN FOR AN NLRP3 INHIBITOR IN THE TREATMENT OF OSTEOARTHRITIS” (Novartis AG, priority 2021, published 2025).

pIC50: −log10 of the molar value.

The test system of the experiment is IL-1β production in PMA-differentiated THP-1 cells. The experiment can be described thus: IL-1β production in PMA-differentiated THP-1 cells stimulated with gramicidin (hTHP-1 assay, 2% fetal bovine serum). Type of experiment: cell-based. Particulars: Homo sapiens, hTHP-1 assay containing 2% fetal bovine serum. How it is done: THP-1 cells were purchased from the American Type Culture Collection and sub-cultured according to instructions from the supplier. Cells were cultured in complete RPMI 1640 (containing 10% heat inactivated FBS, penicillin (100 units/ml) and streptomycin (100 μg/ml)), and maintained in log phase prior to experimental setup. Prior to the experiment, compounds were dissolved in dimethyl sulfoxide (DMSO) to generate a 30 mM stock. The compound stock was first pre-diluted in DMSO to 3, 0.34, 0.042 and 0.0083 mM intermediate concentrations and subsequently spotted using Echo550 liquid handler into an empty 384-well assay plate to achieve desired final concentration (e.g. 100, 33, 11, 3.7, 1.2, 0.41, 0.14, 0.046, 0.015, 0.0051, 0.0017 μM). DMSO was backfilled in the plate to achieve a final DMSO assay concentration of 0.37%. The plate was then sealed and stored at room temperature until required.
THP-1 cells were treated with PMA (Phorbol 12-myristate 13-acetate) (20 ng/ml) for 16-18 hours. On the day of the experiment the media was removed and adherent cells were detached with trypsin for 5 minutes. Cells were then harvested, washed with complete RPMI 1640, spun down, and resuspended in RPMI 1640 (containing 2% heat inactivated FBS, penicillin (100 units/ml) and streptomycin (100 μg/ml). The cells were plated in the 384-well assay plate containing the spotted compounds at a density of 50,000 cells/well (final assay volume 50 μl). Cells were incubated with compounds for 1 hour and then stimulated with gramicidin (5 μM) (Enzo) for 2 hours. Plates were then centrifuged at 340 g for 5 min. Cell free supernatant (40 μL) was collected using a 96-channel PlateMaster (Gilson) and the production of IL-1β was evaluated by HTRF (cisbio). The plates were incubated for 18 h at 4° C. and read using the preset HTRF program (donor emission at 620 nm, acceptor emission at 668 nm) of the SpectraMax i3x spectrophotometer (Molecular Devices, software SoftMax 6). A vehicle only control and a dose titration of CRID3 (100-0.0017 μM) were run concurrently with each experiment. […]

As usually defined, the pIC50 is the negative decadic logarithm of the IC50, by convention in mol/L. A lower pIC50 goes with a high IC50. Consider `CC(C)(O)c1ncc([S@](N)(=O)=NC(=O)Nc2c3c(cc4c2CCC4)CCC3)s1` [Compound IA, (R)-N′-((1,2,3,5,6,7-hexahydro-s-indacen-4-yl)carbamoyl)-2-(2-hydroxypropan-2-yl) thiazole-5-sulfonimidamide], for which the pIC50 is 7.40 to 8.10.
